According to article PMC6747274, “Multifunctional Peptides from Spanish Dry-Cured Pork Ham: Endothelial Responses and Molecular Modeling Studies” (International Journal of Molecular Sciences, 2019):
Where no end group is shown, it is not given here.

Tested on: eNOS mRNA, EA.hy926 cells
Test: eNOS mRNA expression by RT-PCR in EA.hy926 cells
Type: cell-based, human
Details: 300 µM peptide 16 h, then 100 ng/mL TNF-α 6 h; p = 0.0003 (BP1), 0.04 (BP2)
Description: EA.hy926 cells, the hybrid human umbilical vein endothelial cell line, were obtained from the American Type Culture Collection (ATCC® CRL2922™, Rockville, MD, USA). Cells were cultured in high glucose Dulbecco’s Modified Eagle’s Medium (DMEM), containing 10% heat-inactivated fetal bovine serum (FBS, Biowest, Riverside, CA, USA) and 50 U/mL of penicillin and 50 µg/mL streptomycin (Sigma Aldrich Chemical Co., Saint Louis, MO, USA). Cells were grown in 5% CO2 in a humidified air incubator at 37 °C. Subculture was performed when 90% confluence was reached.
EA.hy926 were seeded in six-well plates at 0.25 × 10^6 cells/well in DMEM supplemented with 5% FBS. Cells were treated with 300 µM of each peptide for 16 h. Then, 100 ng/mL TNF-α or 300 µM H2O2 were added for an additional 6 h or 24 h, respectively.
Total RNA was extracted from EA.hy926 cells using 300 µL Trisure™ (Bioline, Taunton, MA, USA) reagent and Direct-zol™ RNA MiniPrep (Zymo Research Irvine, Irvine, CA, USA) according to the manufacturer’s protocol. Total RNA was reverse-transcribed into complementary DNA (Sensifast cDNATM Synthesis kit, Bioline, Taunton, MA, USA). The mRNA levels of the target genes were quantified by RT-PCR using SensiFAST SYBER Hi-ROX Kit (Bioline, Taunton, MA, USA) with StepOnePlus Real-Time PCR System (Applied Biosystems, Foster City, CA, USA). Briefly, 5 µL of 1:5 diluted cDNA was added to the qPCR reaction containing 10 μL 2X SensiFAST Mix and 400 nM of each primer in a total volume of 20 μL.
Specific and validated primers for human glyceraldehyde-3-phosphate dehydrogenase (GADPH), intercellular adhesion marker-1 (ICAM-1), vascular cell adhesion marker-1 (VCAM-1), endothelial nitric oxide synthase (eNOS), interleukin 6 (IL-6), catalase, SOD (Super Oxide Dismutase), NADPH (Nicotinamide Adenine Dinucleotide Phosphate oxidase) and Bax (proapoptosis regulator) genes were used (Sigma-Aldrich Chemical Co., Saint Louis, MO, USA). […]
The relative quantification of gene expression was determined by the comparative fold change […] method. […]

## KAAAATP [BP2]
  eNOS mRNA expression vs TNF-α stimulated cells: recovered
